Results as given in the supplement of paper PMC10627819.

What was measured:
[1] = test system: S. aureus Newman; experiment: fitness (endpoint OD595 vs no drug) (fraction); higher = more growth
In short: (§1)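 Each well of a 384-well plate received 30 µl of culture at OD595 0.01, or 55 µl for S. pneumoniae. TSB, LB Lennox or CY served as media at 37 °C. OD595 was taken every 30 min for 14 h and corrected by subtracting the first reading. Fitness is the optical density at stationary-phase entry divided by the robust mean of no-drug controls, capped at 1.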

[2] = test system: S. pneumoniae D39V; experiment: as above
In short: as §1

[3] = test system: B. subtilis 168; experiment: Bliss interaction score (quartile over a dose matrix) (fitness difference); higher = more antagonism (negative = synergy)
In short: (§2)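 Growth was read as OD595 when cultures entered stationary phase, and each value was divided by the plate's robust no-drug mean and capped at 1. This normalised ratio is the fitness value, and fitness for each single drug came from the combination data. The Bliss score subtracts the expected fitness, taken as the product, from the observed fitness and is given as quartiles across technical, biological and donor/recipient replicates.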

[4] = test system: S. aureus DSM 20231; experiment: as above
In short: as §2

[5] = test system: S. aureus Newman; experiment: as above
In short: as §2

[6] = test system: S. pneumoniae D39V; experiment: as above
In short: as §2
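Throughout, for Bliss interaction score (quartile over a dose matrix): first quartile when negative (synergy) and third quartile when positive (antagonism).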

O=C(O)c1cn(C2CC2)c2cc(N3CCNCC3)c(F)cc2c1=O [Ciprofloxacin] + Cn1nnc(-c2ccc(-c3ccc(N4C[C@H](CO)OC4=O)cc3F)cn2)n1 [Tedizolid]
fitness
Details | partner 0.03125 µg/mL | partner 0.0625 µg/mL | partner 0.125 µg/mL | partner 0.25 µg/mL | partner 0.5 µg/mL
[1], first compound 0.0375 µg/mL | – | – | 0.633 | – | –
[1], first compound 0.075 µg/mL | – | 0.56 | 0.592 | 0.423 | –
[1], first compound 0.15 µg/mL | – | – | – | 0.13 | –
[2], first compound 0.125 µg/mL | 0.935 | 0.95 | 0.771 | 0.331 | 0.102
[2], first compound 0.25 µg/mL | 0.913 | 0.945 | 0.703 | – | –
[2], first compound 0.5 µg/mL | 0.828 | 0.889 | – | 0.292 | 0.0949

[2], first compound 0.25 µg/mL, one replicate
Details | fitness
partner 0.25 µg/mL | 0.257
partner 0.5 µg/mL | 0.0574

Details | Bliss interaction score
[3] | 0.26
[4] | 0.0744
[5] | 0.0978
[6] | -0.0691

C[C@@H]1O[C@@H]1P(=O)(O)O [Fosfomycin] + C/C(=C\C(=O)OCCCCCCCCC(=O)O)C[C@@H]1OC[C@H](C[C@@H]2O[C@H]2[C@@H](C)[C@H](C)O)[C@@H](O)[C@H]1O [Pseudomonic acid]
fitness, [1], one replicate
Details | first compound 0.781 µg/mL | first compound 1.562 µg/mL | first compound 3.124 µg/mL
partner 0.0313 µg/mL | 0.0359 | 0.0031 | 0.0112
partner 0.0625 µg/mL | 0.0247 | 0.0394 | 0.0147
partner 0.125 µg/mL | 0.0275 | 0.0351 | 0.0342

fitness, [2]
Details | first compound 1.25 µg/mL | first compound 2.5 µg/mL | first compound 5 µg/mL
partner 0.03 µg/mL | 0.928 | 0.937 | 0.868
partner 0.06 µg/mL | 0.803 | 0.882 | –
partner 0.12 µg/mL | 0.531 | 0.454 | 0.201

Details | Bliss interaction score
[3] | 0.0483
[4] | 0.0164
[5] | -0.0091
[6] | -0.0714

O=C(O)c1cn(C2CC2)c2cc(N3CCNCC3)c(F)cc2c1=O [Ciprofloxacin] + CN[C@H](CC(C)C)C(=O)N[C@H]1C(=O)N[C@@H](CC(N)=O)C(=O)N[C@H]2C(=O)N[C@H]3C(=O)N[C@H](C(=O)N[C@H](C(=O)O)c4cc(O)cc(O)c4-c4cc3ccc4O)[C@H](O)c3ccc(c(Cl)c3)Oc3cc2cc(c3O[C@@H]2O[C@H](CO)[C@@H](O)[C@H](O)[C@H]2O[C@H]2C[C@](C)(N)[C@H](O)[C@H](C)O2)Oc2ccc(cc2Cl)[C@H]1O [Vancomycin]
Details | fitness
[1], first compound 0.0375 µg/mL, partner 0.1875 µg/mL | 0.75
[1], first compound 0.0375 µg/mL, partner 0.375 µg/mL | 0.77
[1], first compound 0.0375 µg/mL, partner 0.75 µg/mL | 0.725
[1], first compound 0.075 µg/mL, partner 0.1875 µg/mL | 0.718
[1], first compound 0.075 µg/mL, partner 0.375 µg/mL | 0.682
[1], first compound 0.075 µg/mL, partner 0.75 µg/mL | 0.663
[1], first compound 0.15 µg/mL, partner 0.1875 µg/mL | 0.07
[1], first compound 0.15 µg/mL, partner 0.375 µg/mL | 0.0567
[1], first compound 0.15 µg/mL, partner 0.75 µg/mL | 0.0797
[2], first compound 0.125 µg/mL, partner 0.03125 µg/mL | 0.943
[2], first compound 0.125 µg/mL, partner 0.0625 µg/mL | 0.881
[2], first compound 0.125 µg/mL, partner 0.125 µg/mL | 0.885
[2], first compound 0.125 µg/mL, partner 0.25 µg/mL | 0.0814
[2], first compound 0.125 µg/mL, partner 0.5 µg/mL | 0.034
[2], first compound 0.25 µg/mL, partner 0.03125 µg/mL | 0.845
[2], first compound 0.25 µg/mL, partner 0.0625 µg/mL | 0.826
[2], first compound 0.25 µg/mL, partner 0.125 µg/mL | 0.82
[2], first compound 0.5 µg/mL, partner 0.03125 µg/mL | 0.58
[2], first compound 0.5 µg/mL, partner 0.0625 µg/mL | 0.585
[2], first compound 0.5 µg/mL, partner 0.25 µg/mL | 0.158
[2], first compound 0.5 µg/mL, partner 0.5 µg/mL | 0.0552

[2], first compound 0.25 µg/mL, one replicate
Details | fitness
partner 0.25 µg/mL | 0.0819
partner 0.5 µg/mL | 0.0016

Details | Bliss interaction score
[3] | -0.0465
[4] | 0.0479
[5] | -0.0715
[6] | -0.106
